Laboratory results as given in patent US12128040B2, “Selective estrogen receptor degraders” (Eli Lilly and Company, priority 2018, dated 2024).

Tests used:
MCF7 xenograft tumor = test: In vivo tumor growth inhibition study in MCF7 xenograft tumor implanted in mice; conditions: MCF7 breast cancer xenograft, 30 mg/kg QD, oral gavage
Description: The purpose of the following xenograft tumor growth inhibition assay is to measure reduction in tumor volume in response to test compound administration.
Twenty-four hours prior to implantation of MCF7 cells, implant estrogen pellets (0.18 mg/pellet, […], 90-day release, Innovative Research) subcutaneously.

[1] = Rat oral bioavailability assay; assay type: in vivo; conditions: plasma, Sprague-Dawley rats, IV 1 mg/kg, PO 10 mg/kg, read-out: oral bioavailability (% F)
Description: Administer the test compound to Sprague-Dawley rats IV at 1 mg/kg (using vehicles of either: 20% CAPTISOL© in 25 mM sodium phosphate buffer, pH2 quantum satis; or 25% DMA, 15% EtOH, 10% propylene glycol, 25% 2-pyrrolidone, and 25% purified water) and PO at 10 mg/kg (using a vehicle of 1% hydroxyethyl cellulose, 0.25% polysorbate 80, 0.05% Antifoam 1510-US, and purified water quantum satis). Collect serial blood samples at 0.08, 0.25, 0.5, 1, 2, 4, 8, and 12 hours post dose for IV bolus and at 0.25, 0.5, 1, 2, 4, 8, and 12 hours post dose after oral administration. After treatment with an EDTA […], obtain plasma by centrifugation and stored at −70° C. until analysis by LC-MS/MS. Determine the test compound concentration in plasma and upload into the Watson LIMS™ system where noncompartmental analysis is used to calculate Area Under the Curve (AUC) for both IV and PO arms. Calculate oral bioavailability (% F) via the following equation, % F=(AUCPO×DoseIV)/(AUCIV×DosePO)×100.

MCF7 ESR1 wild type = test: Cell proliferation assay in MCF7; assay type: cell-based; conditions: Homo sapiens, seven days, n=2, read-out: Relative IC50 (nM), cell proliferation
Description: The purpose of the following cell proliferation assays generally is to detect whether a test compound has effects on cell proliferation, cell viability, and cytotoxicity in response to treatment in cell culture experiments. Cell proliferation is monitored by monitoring the number of cells over time and the […] assay used allows continuous measurement of cell viability over time.
Seed MCF7 (purchased from ATCC HTB-22) cells at a density of 2,000 cells per well in DMEM phenol red free media 10% FBS (20 μL volume) (charcoal stripped) into a clear bottom 384-well cell culture plate. […] Scan the plates with ACUMEN EXPLORER™ [Laser-scanning fluorescence microplate cytometer manufactured by TTP LABTECH LTD]. The MCF-7 cell line grows forming aggregates, cell number as number of objects may not be able to be used as readout; so the cell number may be evaluated through estimated number of cells (calculated through the area parameter (ratio of total area of the total cells population (a designated range of peak intensity of FL-1 (PI) and the mean area of the single cells population (defined by perimeter)). Determine the IC50 by curve fitting to a four parameter logistic for each output using GENE DATA™.

- bioavailability [1]: 27%
- IC50 (MCF7 ESR1 wild type): 9.24 ± 1.74 nM
SMILES: O=C(c1ccc(OCCN2CC(CF)C2)cc1)c1c(-c2ccc(C(F)(F)F)cc2F)cnc2cc(O)ccc12 [Example 1, (4-{2-[3-(Fluoromethyl)azetidin-1-yl]ethoxy}phenyl){3-[2-fluoro-4-(trifluoromethyl)phenyl]-7-hydroxyquinolin-4-yl}methanone]
- Delta T/C % or Regression % (MCF7 xenograft tumor): −36%
